Assay results published in ChEMBL document CHEMBL3763029, “Heptapeptide ligands against receptor-binding sites of influenza hemagglutinin toward anti-influenza therapy” (Bioorg Med Chem, 2016).
pIC50, pKd: −log10 of the molar value. Activity calls are given as the source filed them. The rule behind the calls is not given here. Peptide text beside a SMILES is read from it. * marks the point of attachment. Biotinyl(3aR,4S,6aS) = O=C1N[C@H]2[C@H](CCCCC(=O)*)SC[C@H]2N1; Biotin = O=C1N[C@H]2[C@H](CS[C@H]2CCCCC(=O)*)N1; Stearoyl = CCCCCCCCCCCCCCCCCC(=O)*

Columns and labels:
H3N2 subtype = assay: Antiviral activity against Influenza A virus (A/Aichi/2/68(H3N2)) infected in MDCK cells assessed as inhibition of plaque formation pretreated with virus for 30 mins followed by host cell infection for 30 mins measured after 2 days by crystal violet staining assay; type: functional, organism-based; settings: A/Aichi/2/1968(H3N2)
Influenza A virus = assay: Antiviral activity against Influenza A virus (A/Puerto Rico/8/34(H1N1)) infected in MDCK cells assessed as inhibition of plaque formation pretreated with virus for 30 mins followed by host cell infection for 30 mins measured after 2 days by crystal violet staining assay; type: functional, organism-based; settings: A/Puerto Rico/8/1934(H1N1)
[1] = tested on: Influenza A virus (A/Wyoming/03/2003(H3N2)); assay: Binding affinity to Influenza A virus (A/Wyoming/03/2003(H3N2)) H3 hemagglutinin at 200 uM after 2 hrs by avidin-biotin-peroxidase complex method in presence of Neu5Ac
[2] = tested on: Influenza A virus (A/New Caledonia/20/1999(H1N1)); assay: (§1) Binding affinity to Influenza A virus (A/New Caledonia/20/99 (H1N1)) H1 hemagglutinin after 2 hrs by avidin-biotin-peroxidase complex method
[3] = as §1; parameters: species or system Influenza A virus (A/New Caledonia/20/1999(H1N1))
[4] = tested on: Influenza A virus (A/Wyoming/03/2003(H3N2)); assay: (§2) Binding affinity to Influenza A virus (A/Wyoming/03/2003(H3N2)) H3 hemagglutinin after 2 hrs by avidin-biotin-peroxidase complex method
[5] = as §2
[6] = Binding affinity to Influenza A virus (A/Aichi/2/68(H3N2)) H3 hemagglutinin after 2 hrs by NMR method; parameters: species or system Influenza A virus (A/Aichi/2/1968(H3N2))
[7] = tested on: Influenza A virus (A/Wyoming/03/2003(H3N2)); assay: Binding affinity to Influenza A virus (A/Wyoming/03/2003(H3N2)) H3 hemagglutinin at 400 uM after 2 hrs by avidin-biotin-peroxidase complex method relative to 7-1 peptide
[8] = tested on: Influenza A virus (A/Wyoming/03/2003(H3N2)); assay: Binding affinity to Influenza A virus (A/Wyoming/03/2003(H3N2)) H3 hemagglutinin after 2 hrs by avidin-biotin-peroxidase complex method in presence of glucose
[9] = tested on: Influenza A virus (A/Wyoming/03/2003(H3N2)); assay: Binding affinity to Influenza A virus (A/Wyoming/03/2003(H3N2)) H3 hemagglutinin after 2 hrs by avidin-biotin-peroxidase complex method in presence of Neu5Ac

SMILES: CCCCCCCCCCCCCCCCCC(=O)N[C@@H](CC(C)C)C(=O)N[C@H](C(=O)N[C@@H](CCCNC(=N)N)C(=O)N1CCC[C@H]1C(=O)N[C@@H](CC(C)C)C(=O)N[C@@H](C)C(=O)N[C@@H](CC(C)C)C(N)=O)C(C)C (Stearoyl-LVRPLAL-NH2)
- pIC50 (H3N2 subtype): 5.19
- pIC50 (Influenza A virus): 4.00

SMILES: CC(C)C[C@H](NC(=O)[C@H](C)NC(=O)[C@H](CC(C)C)NC(=O)[C@@H]1CCCN1C(=O)[C@H](CCCNC(=N)N)NC(=O)[C@@H](NC(=O)[C@@H](N)CC(C)C)C(C)C)C(=O)N[C@@H](CCCCNC(=O)CCCC[C@@H]1SC[C@@H]2NC(=O)N[C@@H]21)C(N)=O (H-LVRPLALK(Biotin)-NH2)
- Activity [1]: inactive
- Activity [2]: Dose-dependent effect
- pKd [3]: 4.04
- Activity [4]: Dose-dependent effect
- pKd [5]: 3.71

SMILES: CC(=O)N[C@H]1[C@H]([C@H](O)[C@H](O)CO)O[C@@](O[C@H]2[C@@H](O)[C@@H](CO)O[C@@H](O[C@H]3[C@H](O)[C@@H](O)[C@H](O)O[C@@H]3CO)[C@@H]2O)(C(=O)O)C[C@@H]1O
- pKd [3]: < 3.70
- pKd [5]: < 3.40
- pKd [6]: 2.49

SMILES: CC(C)C[C@H](NC(=O)[C@H](C)NC(=O)[C@H](CCCNC(=N)N)NC(=O)[C@@H](NC(=O)[C@@H](N)CC(C)C)C(C)C)C(=O)N[C@@H](C)C(=O)N[C@@H](CC(C)C)C(=O)N[C@@H](CCCCNC(=O)CCCC[C@@H]1SC[C@H]2NC(=O)N[C@@H]12)C(N)=O (H-LVRALALK(Biotinyl(3aR,4S,6aS))-NH2)
- Activity [4]: inactive

SMILES: CC(C)C[C@H](NC(=O)[C@H](C)NC(=O)[C@H](CC(C)C)NC(=O)[C@@H]1CCCN1C(=O)[C@H](CCCNC(=N)N)NC(=O)[C@H](CCC(N)=O)NC(=O)[C@@H](N)CC(C)C)C(=O)N[C@@H](CCCCNC(=O)CCCC[C@@H]1SC[C@H]2NC(=O)N[C@@H]12)C(N)=O (H-LQRPLALK(Biotinyl(3aR,4S,6aS))-NH2)
- Activity [4]: Active

SMILES: CC(C)C[C@H](NC(=O)[C@H](CC(=O)O)NC(=O)[C@H](CC(C)C)NC(=O)[C@@H]1CCCN1C(=O)[C@H](CCCNC(=N)N)NC(=O)[C@@H](NC(=O)[C@@H](N)CC(C)C)C(C)C)C(=O)N[C@@H](CCCCNC(=O)CCCC[C@@H]1SC[C@H]2NC(=O)N[C@@H]12)C(N)=O (H-LVRPLDLK(Biotinyl(3aR,4S,6aS))-NH2)
- Activity [4]: Active

SMILES: CC(C)C[C@H](NC(=O)CNC(=O)[C@H](CCCNC(=N)N)NC(=O)[C@@H](NC(=O)[C@@H](N)CC(C)C)C(C)C)C(=O)N[C@@H](C)C(=O)N[C@@H](CC(C)C)C(=O)N[C@@H](CCCCNC(=O)CCCC[C@@H]1SC[C@H]2NC(=O)N[C@@H]12)C(N)=O (H-LVRGLALK(Biotinyl(3aR,4S,6aS))-NH2)
- Activity [7]: 17%

SMILES: CC(C)C[C@H](NC(=O)[C@H](C)NC(=O)[C@H](CC(C)C)NC(=O)[C@@H]1CCCN1C(=O)[C@H](CCCNC(=N)N)NC(=O)[C@@H](NC(=O)[C@@H](N)CC(=O)O)C(C)C)C(=O)N[C@@H](CCCCNC(=O)CCCC[C@@H]1SC[C@H]2NC(=O)N[C@@H]12)C(N)=O (H-DVRPLALK(Biotinyl(3aR,4S,6aS))-NH2)
- Activity [4]: Active

SMILES: CC(C)C[C@H](NC(=O)[C@H](C)NC(=O)[C@H](CC(C)C)NC(=O)[C@@H]1CCCN1C(=O)[C@H](CCCNC(=N)N)NC(=O)[C@@H](NC(=O)[C@H](C)N)C(C)C)C(=O)N[C@@H](CCCCNC(=O)CCCC[C@@H]1SC[C@H]2NC(=O)N[C@@H]12)C(N)=O (H-AVRPLALK(Biotinyl(3aR,4S,6aS))-NH2)
- Activity [8]: Active
- Activity [9]: inactive

SMILES: CC(C)C[C@H](NC(=O)[C@H](C)NC(=O)[C@H](CC(C)C)NC(=O)[C@@H]1CCCN1C(=O)[C@H](C)NC(=O)[C@@H](NC(=O)[C@@H](N)CC(C)C)C(C)C)C(=O)N[C@@H](CCCCNC(=O)CCCC[C@@H]1SC[C@H]2NC(=O)N[C@@H]12)C(N)=O (H-LVAPLALK(Biotinyl(3aR,4S,6aS))-NH2)
- Activity [4]: inactive

SMILES: CC(C)C[C@H](NC(=O)[C@H](C)NC(=O)[C@H](CC(C)C)NC(=O)[C@@H]1CCCN1C(=O)[C@H](Cc1cnc[nH]1)NC(=O)[C@@H](NC(=O)[C@@H](N)CC(C)C)C(C)C)C(=O)N[C@@H](CCCCNC(=O)CCCC[C@@H]1SC[C@H]2NC(=O)N[C@@H]12)C(N)=O (H-LVHPLALK(Biotinyl(3aR,4S,6aS))-NH2)
- Activity [4]: Active

SMILES: CC(C)C[C@H](NC(=O)[C@H](C)NC(=O)[C@H](CC(C)C)NC(=O)[C@H](Cc1cnc[nH]1)NC(=O)[C@H](CCCNC(=N)N)NC(=O)[C@@H](NC(=O)[C@@H](N)CC(C)C)C(C)C)C(=O)N[C@@H](CCCCNC(=O)CCCC[C@@H]1SC[C@H]2NC(=O)N[C@@H]12)C(N)=O (H-LVRHLALK(Biotinyl(3aR,4S,6aS))-NH2)
- Activity [4]: Active

SMILES: CC(C)C[C@H](NC(=O)[C@H](C)NC(=O)[C@H](CC(C)C)NC(=O)[C@@H]1CCCN1C(=O)[C@H](CC(=O)O)NC(=O)[C@@H](NC(=O)[C@@H](N)CC(C)C)C(C)C)C(=O)N[C@@H](CCCCNC(=O)CCCC[C@@H]1SC[C@H]2NC(=O)N[C@@H]12)C(N)=O (H-LVDPLALK(Biotinyl(3aR,4S,6aS))-NH2)
- Activity [7]: 19%

SMILES: CC(C)C[C@H](NC(=O)[C@H](C)NC(=O)[C@H](C)NC(=O)[C@@H]1CCCN1C(=O)[C@H](CCCNC(=N)N)NC(=O)[C@@H](NC(=O)[C@@H](N)CC(C)C)C(C)C)C(=O)N[C@@H](CCCCNC(=O)CCCC[C@@H]1SC[C@H]2NC(=O)N[C@@H]12)C(N)=O (H-LVRPAALK(Biotinyl(3aR,4S,6aS))-NH2)
- Activity [8]: Active
- Activity [9]: inactive

SMILES: CC(C)C[C@H](NC(=O)[C@@H]1CCCN1C(=O)[C@H](CCCNC(=N)N)NC(=O)[C@@H](NC(=O)[C@@H](N)CC(C)C)C(C)C)C(=O)N[C@@H](C)C(=O)N[C@@H](C)C(=O)N[C@@H](CCCCNC(=O)CCCC[C@@H]1SC[C@H]2NC(=O)N[C@@H]12)C(N)=O (H-LVRPLAAK(Biotinyl(3aR,4S,6aS))-NH2)
- Activity [8]: Active
- Activity [9]: inactive

SMILES: CC(C)C[C@H](NC(=O)[C@H](C)NC(=O)[C@H](Cc1c[nH]c2ccccc12)NC(=O)[C@@H]1CCCN1C(=O)[C@H](CCCNC(=N)N)NC(=O)[C@@H](NC(=O)[C@@H](N)CC(C)C)C(C)C)C(=O)N[C@@H](CCCCNC(=O)CCCC[C@@H]1SC[C@H]2NC(=O)N[C@@H]12)C(N)=O (H-LVRPWALK(Biotinyl(3aR,4S,6aS))-NH2)
- Activity [4]: Active

SMILES: CC(C)C[C@H](NC(=O)[C@H](C)NC(=O)[C@H](CC(C)C)NC(=O)[C@@H]1CCCN1C(=O)[C@H](CCCNC(=N)N)NC(=O)[C@H](C)NC(=O)[C@@H](N)CC(C)C)C(=O)N[C@@H](CCCCNC(=O)CCCC[C@@H]1SC[C@H]2NC(=O)N[C@@H]12)C(N)=O (H-LARPLALK(Biotinyl(3aR,4S,6aS))-NH2)
- Activity [8]: Active
- Activity [9]: inactive

SMILES: CC(=O)N[C@H]1[C@H]([C@H](O)[C@H](O)CO)O[C@@](OC[C@H]2O[C@@H](O[C@H]3[C@H](O)[C@@H](O)[C@H](O)O[C@@H]3CO)[C@H](O)[C@@H](O)[C@H]2O)(C(=O)O)C[C@@H]1O
- pKd [3]: < 3.30
- pKd [5]: < 3.30
- pKd [6]: 2.68
